{"source": "paper PMC7118906", "about": "“Esculetin Inhibits Cancer Cell Glycolysis by Binding Tumor PGK2, GPD2, and GPI” (Frontiers in Pharmacology, 2020)", "format_in_all_cases": "binding", "key": {"[1]": {"target": "T1, glycerol-3-phosphate dehydrogenase (GPD2) (Homo sapiens, UniProt P43304)", "T1 sequence (P43304 43-727)": "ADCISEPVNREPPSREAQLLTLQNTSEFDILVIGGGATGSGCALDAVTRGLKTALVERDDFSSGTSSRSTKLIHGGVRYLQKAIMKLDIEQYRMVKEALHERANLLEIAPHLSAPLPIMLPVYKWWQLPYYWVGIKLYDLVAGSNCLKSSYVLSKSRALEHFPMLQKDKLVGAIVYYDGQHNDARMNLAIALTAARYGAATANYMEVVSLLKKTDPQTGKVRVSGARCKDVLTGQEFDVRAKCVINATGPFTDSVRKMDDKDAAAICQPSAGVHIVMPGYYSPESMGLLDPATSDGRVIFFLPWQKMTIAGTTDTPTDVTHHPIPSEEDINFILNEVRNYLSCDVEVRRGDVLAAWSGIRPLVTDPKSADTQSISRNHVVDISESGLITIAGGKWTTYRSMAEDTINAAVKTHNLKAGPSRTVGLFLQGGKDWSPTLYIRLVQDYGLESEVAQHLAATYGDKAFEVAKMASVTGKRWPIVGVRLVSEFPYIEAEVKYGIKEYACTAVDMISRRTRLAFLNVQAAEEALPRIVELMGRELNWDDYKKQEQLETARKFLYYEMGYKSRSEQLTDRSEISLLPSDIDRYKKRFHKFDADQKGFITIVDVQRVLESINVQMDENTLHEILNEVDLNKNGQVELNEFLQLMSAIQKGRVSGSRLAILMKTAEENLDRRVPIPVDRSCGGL", "assay": "microscale thermophoresis with labeled purchased protein (Abcam ab153790)"}, "[2]": {"target": "T2, phosphoglycerate kinase 2 (PGK2) (Homo sapiens, UniProt P07205)", "T2 sequence (P07205 2-417)": "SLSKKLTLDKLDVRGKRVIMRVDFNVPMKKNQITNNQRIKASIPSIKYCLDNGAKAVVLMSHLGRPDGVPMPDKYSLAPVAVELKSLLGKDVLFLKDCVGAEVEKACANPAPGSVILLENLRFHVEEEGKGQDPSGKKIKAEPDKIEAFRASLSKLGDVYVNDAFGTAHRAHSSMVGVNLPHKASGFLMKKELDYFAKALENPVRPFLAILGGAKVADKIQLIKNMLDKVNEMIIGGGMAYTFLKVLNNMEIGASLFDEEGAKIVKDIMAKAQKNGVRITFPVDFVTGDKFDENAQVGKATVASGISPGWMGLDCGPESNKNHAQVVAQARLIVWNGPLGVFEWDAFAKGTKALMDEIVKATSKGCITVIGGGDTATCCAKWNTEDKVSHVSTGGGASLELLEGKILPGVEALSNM", "assay": "microscale thermophoresis with labeled purchased protein (Abcam ab123166)"}, "[3]": {"target": "glucose-6-phosphate isomerase (GPI) (Homo sapiens, UniProt P06744)", "assay": "microscale thermophoresis with labeled purchased protein (Abcam ab208311)"}}, "data": [{"smiles": "O=c1ccc2cc(O)c(O)cc2o1", "note": "[Esculetin]", "values": [{"measurement": "Kd", "setting": "[1]", "value": "666 ± 196", "unit": "nM"}, {"measurement": "Kd", "setting": "[2]", "value": "161 ± 63.3", "unit": "nM"}, {"measurement": "Kd", "setting": "[3]", "value": "127 ± 22.4", "unit": "nM"}]}]}
